Results published in US10647673B2, “Acetophenone compound, preparation method thereof, and application thereof in fatty liver prevention and treatment” (Nanjing Bioenergy Medicine Science & Technology Co., Ltd., priority 2017, dated 2020).
“Also recorded” adds a separate entry of the source.

What was measured:
Type in all cases: in vivo
[1] = system: nutritive obesity C57 mice; test: Weight loss experiment in nutritive obesity C57 mice; parameters: key to body weight of mice: body weight in g; settings: for body weight of mice: high-fat diet, orlistat 40 mg/kg, Compounds 13 and 14 80 mg/kg intragastric, x ± s, n = 6; for effect on body weight compared with Orlistat (in words) / effect on body weight (in words): nutritive obesity C57 mice; for effect on body weight compared with Orlistat (in words): 80 mg/kg vs orlistat 40 mg/kg; for effect on body weight (in words): 80 mg/kg, as compared with Model group
From the text: C57 mice, male, 18-20 g of body weight. The mice were randomly divided into Control group, Model group, Orlistat group, Compound 13 group and Compound 14 group, with 6 mice in each group.
(§1) appropriate amounts of orlistat, Compound 13 and Compound 14 were weighed respectively, added with 0.5% CMC-Na and grinded to dissolve.
The mice in Control group were fed with normal diet, and the other mice were fed with high-fat diet. All of the mice had free access to water. After one week of feeding, the pharmaceuticals were intragastrically administrated. The dose was 40 mg/kg body weight for orlistat, 80 mg/kg for Compounds 13 and 14. The body weight of the mice was weighed every week during the experiment which lasted for 28 days.

[2] = system: ob/ob mice; test: Weight loss experiment in ob/ob mice; settings: for body weight of ob/ob mice: orlistat 40 mg/kg, other pharmaceuticals 80 mg/kg intragastric, x ± s, n = 6; for effect on body weight compared with Orlistat (in words) / effect on body weight (in words): ob/ob mice; for effect on body weight compared with Orlistat (in words): 80 mg/kg vs orlistat 40 mg/kg; for effect on body weight (in words): 80 mg/kg, as compared with Model group
From the text: […] ob/ob mice, male, 18-20 g of body weight, fed adaptively for one week before use. The mice were randomly divided into Control group, Model group, Orlistat group, Compound 13 group and Compound 14 group, with 6 mice in each group.
as §1
After feeding for one week, the mice were intragastrically administrated with the pharmaceuticals except the mice of Control group. The dose was 40 mg/kg body weight for orlistat, 80 mg/kg for the other pharmaceuticals. The body weight of the mice was weighed every week during the experiment which lasted for 28 days.

[3] = system: fatty liver of the SD rats; test: Pathological sections and grading of fatty liver of SD rats; settings: compounds 80 mg/kg, Sim 10 mg/kg, OCA 10 mg/kg
Procedure: 500 g of lard oil was taken, placed in a container, and heated to melt. When the temperature rose to 100° C., it was added with 200 g of cholesterol to dissolve completely, and then further added with 20 g of propylthiouracil. The resulted mixture was stirred well, and added with 500 ml of Tween 80 after dissolution, resulting in an oil phase. At the same time, 600 mL of distilled water and 400 mL of 1,2-propanediol were taken and heated to 60° C. in a water bath, then were added with 40 g of sodium deoxycholate. The resulted mixture was stirred well until realizing complete dissolution, so as to give an aqueous phase. The aqueous phase was added into the oil phase and mixed well to give a lipid emulsion. The lipid emulsion was heated in a water bath of 37° C. before intragastric administration to animals.
An appropriate amount of pharmaceutical was weighed, added with 0.5% CMC-Na, and mixed homogeneously by grinding. There are groups for Compound 01 (80 mg/kg), Compound 02 (80 mg/kg), Compound 03 (80 mg/kg), Compound 04 (80 mg/kg), Compound 05 (80 mg/kg), Compound 06 (80 mg)/kg), Compound 07 (80 mg/kg), Compound 08 (80 mg/kg), Compound 09 (80 mg/kg), Compound 10 (80 mg/kg), Compound 11 (80 mg/kg), Compound 12 (80 mg/kg), Compound 13 (80 mg/kg), Compound 14 (80 mg/kg), Compound 15 (80 mg/kg), Compound 16 (80 mg/kg), Compound 17 (80 mg/kg), Compound 18 (80 mg/kg), Compound 19 (80 mg/kg), Compound 20 (80 mg/kg), Compound 21 (80 mg/kg), and Compound 22 (80 mg/kg).
Male SD rats weighing 180-200 g were fed adaptively for 7 days. Based on body weight, 10 animals were used as control and the remaining animals were intragastrically administered with the lipid emulsion every day, 1 ml/100 g body weight for 14 days. After fasting for 12 hours, 1 mL of blood was collected from the orbits of the animals, and was determined by Hitachi Automatic Biochemical Analyzer 7080 for serum cholesterol (CHO), triglyceride (TG), low density lipoprotein (LDL-C) and high density lipoprotein (HDL-C).
The modeled rats were continued with the intragastric administration of the lipid emulsion. At the same time, the pharmaceutical-administered groups were administrated with a corresponding dose of pharmaceuticals, while the Model group was administrated with an equal volume of solvent. The pharmaceutical-administered groups were administrated with the lipid emulsion in the morning, and with the pharmaceuticals in the afternoon. The animals were measured for the body weight once a week, and were observed. After 14 days of continuous administration, 1 mL of blood was collected from the orbits, and was determined for the contents of triglyceride, cholesterol, low density lipoprotein and high density lipoprotein in blood serum.

[4] = Experiment Day 0, in g (unit assumed)
[5] = Experiment Day 7, in g (unit assumed)
[6] = Experiment Day 14, in g (unit assumed)
[7] = Experiment Day 21, in g (unit assumed)

Compound	body weight of mice [1, 4]	body weight of mice [1, 5]	body weight of mice [1, 6]	body weight of mice [1, 7]	body weight of mice ([1]; Experiment Day 28)	effect on body weight compared with Orlistat (in words) [1]	effect on body weight (in words) [1]	body weight of ob/ob mice [2, 4]	body weight of ob/ob mice [2, 5]	body weight of ob/ob mice [2, 6]	body weight of ob/ob mice [2, 7]	body weight of ob/ob mice ([2]; Experiment Day 28)	effect on body weight compared with Orlistat (in words) [2]	effect on body weight (in words) [2]	Pathological grading: Steatotic hepatocytes ([3]; animal 1)	Pathological grading: Steatotic hepatocytes ([3]; animal 2)	Pathological grading: Steatotic hepatocytes ([3]; animal 3)	Pathological grading: Steatotic hepatocytes ([3]; animal 4)	Pathological grading: Steatotic hepatocytes ([3]; animal 5)	Pathological grading: Infiltration of inflammatory cells ([3]; animal 1)
CC(=O)c1ccc(O)c(OC(=O)C(C)(C)CCCOc2cc(C)ccc2C)c1 [Compound 13]	17.20 ± 1.92	19.97 ± 0.57	21.04 ± 0.29	22.14 ± 0.31	23.25 ± 0.26	better effect than Orlistat	obvious effects on weight loss; also recorded: significantly decrease the body weight of the mice from Day 14	20.74 ± 1.10	21.43 ± 0.61	22.10 ± 0.16	24.53 ± 1.76	26.10 ± 1.95	better effect than Orlistat	obvious effects on weight loss; also recorded: significantly decrease the body weight of the ob/ob mice	+ (25-45% of hepatocytes undergoing steatosis)	++ (45-65% of hepatocytes undergoing steatosis)	+ (25-45% of hepatocytes undergoing steatosis)	++ (45-65% of hepatocytes undergoing steatosis)	++ (45-65% of hepatocytes undergoing steatosis)	
CC(=O)c1ccc(O)c(OC(=O)c2cccnc2)c1 [Compound 14]	17.21 ± 1.57	19.83 ± 0.71	20.87 ± 0.75	21.89 ± 0.77	22.92 ± 0.88	better effect than Orlistat	obvious effects on weight loss; also recorded: significantly decrease the body weight of the mice from Day 14	20.79 ± 0.39	21.22 ± 0.38	22.18 ± 0.42	24.10 ± 0.45	26.17 ± 0.86	better effect than Orlistat	obvious effects on weight loss; also recorded: significantly decrease the body weight of the ob/ob mice	+ (25-45% of hepatocytes undergoing steatosis)		+ (25-45% of hepatocytes undergoing steatosis)	+ (25-45% of hepatocytes undergoing steatosis)		0
